Experimental findings from US5523315A, “N-(hydroxyethyl)butanediamide derivatives” (Bio-Mega/Boehringer Ingelheim Research Inc., priority 1993, dated 1996) are described below.

pIC50: −log10 of the molar value.

One may read the pIC50 as the negative decadic logarithm of the IC50, by convention in mol/L. Lower therefore signals a large IC50.

The target in this experiment is T1, human renin (Homo sapiens, UniProt P00797).
T1 construct: A human plasma pool is used as the source of both the substrate (angiotensinogen) and the enzyme (renin); from tissue; host or cells: pooled human plasma
T1 sequence (P00797 67-406): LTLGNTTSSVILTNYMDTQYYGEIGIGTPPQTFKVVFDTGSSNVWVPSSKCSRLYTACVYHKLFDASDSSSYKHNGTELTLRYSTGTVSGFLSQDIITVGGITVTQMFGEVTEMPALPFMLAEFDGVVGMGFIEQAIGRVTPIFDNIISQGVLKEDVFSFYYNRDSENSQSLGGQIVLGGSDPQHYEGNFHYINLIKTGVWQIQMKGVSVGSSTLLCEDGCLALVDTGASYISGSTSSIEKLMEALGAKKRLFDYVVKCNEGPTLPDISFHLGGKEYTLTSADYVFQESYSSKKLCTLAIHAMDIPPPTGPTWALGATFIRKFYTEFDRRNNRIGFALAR
The experiment is described as follows: plasma renin assay (inhibition of human renin; angiotensin I generated, measured by radioimmunoassay). The format is biochemical. The conditions noted are these: human plasma pool, pH 6.0, 2 h incubation at 37°. The method, then:
The assay is performed as follows: The test compound (i.e. the inhibitor) is dissolved in dimethylsulfoxide (1 mM stock solution) and diluted with an aqueous buffer solution of 270 mM 2-(N-morpholino)ethanesulfonic acid and 1% human serum albumin (pH 5.85, also containing dimercaprol and 8-hydroxyquinoline sulfate in accordance with the instructions of the RIA kit noted below) to give an assay mixture in which the final dimethylsulfoxide content is 1% (v/v).
A human plasma pool is used as the source of both the substrate (angiotensinogen) and the enzyme (renin). The reaction is initiated by the addition of 50 μL of human plasma pool to 50 μL of various concentrations of inhibitor in the 1% dimethylsulfoxide assay buffer. The plasma renin activity is measured by the amount of angiotensin I generated at pH 6.0 following a 2 h incubation at 37°.
Quantitation of angiotensin I is performed by radioimmunoassay (RIA kit from New England Nuclear-Dupont, Mississauga, ON, Canada). The enzymatic activity of renin is expressed in ng of angiotensin I generated (/mL/2 h). The extent of inhibition of the reaction is determined from the amount of angiotensin I generated in reference to a control prepared without inhibitor. Nonlinear regression analysis is used to calculate the IC50 values, i.e. the molar concentration of the test compound required to cause a 50% inhibition of the enzyme activity.
`CC(C)C[C@H](O)[C@H](O)[C@H](CC1CCCCC1)NC(=O)[C@@H](CC(=O)N[C@@H](CO)CC1CCCCC1)Cc1cscn1` [Compound 45] gave a pIC50 of 7.43.

For the compound `CCC[C@H](CC(=O)N(Cc1ccccc1)CC1(O)CCCCC1)C(=O)N[C@@H](CC1CCCCC1)[C@@H](O)[C@@H](O)CC(C)C` [Compound 2, N^4-benzyl-N^4-[(1-hydroxycyclohexyl)methyl]-N^1-[1(S)-(cyclohexylmethyl)-2(R),3(S)-dihydroxy-5-methylhexyl]-2(R)-propylbutanediamide], the pIC50 was 7.57.

Compound `CC(C)C[C@H](O)[C@H](O)[C@H](CC1CCCCC1)NC(=O)[C@@H](CC(=O)N(CC1CCCCCC1)CC(C)(C)O)Cc1cscn1` [Compound 51, N^4-(cycloheptylmethyl)-N^4-(2-hydroxy-2-methylpropyl)-N^1-[1(S)-(cyclohexylmethyl)-2(R),3(S)-dihydroxy-5-methylhexyl]-2(R)-(4-thiazolylmethyl)butanediamide] had a pIC50 of 8.30.

For the compound `CC(C)C[C@H](O)[C@H](O)[C@H](CC1CCCCC1)NC(=O)[C@@H](CC(=O)N(Cc1cccnc1)CC1(O)CCCCC1)CC1CC1` [Compound 26, N^4-[(1-hydroxycyclohexyl)methyl]-N^4-(3-pyridinylmethyl)-N^1-[1(S)-(cyclohexylmethyl)-2(R),3(S)-dihydroxy-5-methylhexyl]-2(R)-(cyclopropylmethyl)butanediamide], the pIC50 was 7.59.

Compound `CC(C)C[C@H](O)[C@H](O)[C@H](CC1CCCCC1)NC(=O)[C@@H](CC(=O)N(CC(C)O)CC1CCCCC1)Cc1cscn1` (single isomer, unassigned) [Compound 39, N^4-(cyclohexylmethyl)-N^4-[2(R or S)-hydroxypropyl]-N^1-[1(S)-(cyclohexylmethyl)-2(R),3(S)-dihydroxy-5-methylhexyl]-2(R)-(4-thiazolylmethyl)butanediamide] had a pIC50 of 8.06.

Turning to `CC(C)C[C@H](O)[C@H](O)[C@H](CC1CCCCC1)NC(=O)[C@@H](CC(=O)N(CC(=O)N(C)CCc1ccccn1)CC1(O)CCCCCC1)Cc1csc(N)n1` [Compound 59, N^4-[(1-hydroxycycloheptyl)methyl]-N^4 -{2-{methyl[2-(2-pyridinyl)ethyl]amino}-2-oxoethyl}-N^1-[1(S)-(cyclohexylmethyl)-2(R),3(S)-dihydroxy-5-methylhexyl]-2(R)-[(2-amino-4-thiazolyl)methyl]butanediamide], the pIC50 was 8.82.

Take `CC(C)C[C@H](O)[C@H](O)[C@H](CC1CCCCC1)NC(=O)[C@@H](CC(=O)N(Cc1ccc2c(c1)OCO2)CC1(O)CCCCC1)CC1CC1` [Compound 3, N^4-[(1-hydroxycyclohexyl)methyl]-N^4-[(4,5-methylenedioxyphenyl)methyl]-N^1-[1(S)-(cyclohexylmethyl)-2(R),3(S)-dihydroxy-5-methylhexyl]-2(R)-(cyclopropylmethyl)butanediamide]: the pIC50 is 7.68.

Take `CC(C)C[C@H](O)[C@H](O)[C@H](CC1CCCCC1)NC(=O)[C@@H](CC(=O)N(Cc1ccccc1)CC(O)c1ccccc1)CC1CC1` (stereo partly drawn) [Compound 12, N^4-benzyl-N^4-(R,S)-(2-hydroxy-2-phenylethyl)-N^1-[1(S)-(cyclohexylmethyl)-2(R),3(S)-dihydroxy-5-methylhexyl]-2(R)-(cyclopropylmethyl)butanediamide]: the pIC50 is 7.15.

Turning to `CC(=O)CN(CC1CCCCC1)C(=O)C[C@@H](Cc1cscn1)C(=O)N[C@@H](CC1CCCCC1)[C@@H](O)[C@@H](O)CC(C)C` [Compound 60, N^4-(cyclohexylmethyl)-N^4-(2-oxopropyl)-N^1-[1(S)-(cyclohexylmethyl)-2(R),3(S)-dihydroxy-5-methylhexyl]-2(R)-(4-thiazolylmethyl)butanediamide], the pIC50 was 8.70.

In turn, `CC(C)C[C@H](O)[C@H](O)[C@H](CC1CCCCC1)NC(=O)[C@@H](CC(=O)N[C@@H](CO)[C@@H](O)c1ccccc1)CC1CC1` [Compound 18, N^4-[2(S)-hydroxy-1(S)-(hydroxymethyl)-2-phenylethyl]-N^1-[1(S)-(cyclohexylmethyl)-2(R),3(S)-dihydroxy-5-methylhexyl]-2(R)-(cyclopropylmethyl)butanediamide] gave a negative-log IC50 (pIC50) of 7.02.

In turn, `CC(C)C[C@H](O)[C@H](O)[C@H](CC1CCCCC1)NC(=O)[C@@H](CC(=O)N(CC(=O)N(C)C)CC1(O)CCCCC1)Cc1cscn1` [Compound 34, N^4-[(1-hydroxycyclohexyl)methyl]-N^4-[2-(dimethylamino)-2-oxoethyl]-N^1-[1(S)-(cyclohexylmethyl)-2(R),3(S)-dihydroxy-5-methylhexyl]-2(R)-(4-thiazolylmethyl)butanediamide] showed a pIC50 of 8.80.

On to `CC(C)C[C@H](O)[C@H](O)[C@H](CC1CCCCC1)NC(=O)[C@@H](CC(=O)N(Cc1ccccn1)CC1(O)CCCCC1)CC1CC1` [Compound 4, N^4-[(1-hydroxycyclohexyl)methyl]-N^4-(2-pyridinylmethyl)-N^1-[1(S)-(cyclohexylmethyl)-2(R),3(S)-dihydroxy-5-methylhexyl]-2(R)-(cyclopropylmethyl)butanediamide], for which the pIC50 was 7.44.

Consider `CC(C)C[C@H](O)[C@H](O)[C@H](CC1CCCCC1)NC(=O)[C@@H](CC(=O)N(C)CC1(O)CCCCC1)Cc1c[nH]cn1` [Compound 35, N^4-[(1-hydroxycyclohexyl)methyl]-N^4-methyl-N^1-[1(S)-(cyclohexylmethyl)-2(R),3(S)-dihydroxy-5-methylhexyl]-2(R)-(1H-imidazol-4-ylmethyl)-butanediamide], for which the pIC50 is 7.17.

As to `CC(C)C[C@H](O)[C@H](O)[C@H](CC1CCCCC1)NC(=O)[C@@H](CC(=O)N(CC(=O)N(C)C)CC(O)c1ccccc1)Cc1cscn1` (mixture of isomers) [Compound 44, N^4-[2-(dimethylamino)-2-oxoethyl]-N^4-[2(R,S)-hydroxy-2-phenylethyl]-N^1-[1(S)-(cyclohexylmethyl)-2(R),3(S)-dihydroxy-5-methylhexyl]-2(R)-(4-thiazolylmethyl)butanediamide], the pIC50 is 8.00.

On to `CC(C)C[C@H](O)[C@H](O)[C@H](CC1CCCCC1)NC(=O)[C@@H](CC(=O)N(C)CC1(O)CCCCC1)Cc1cscn1` [Compound 30, N^4-[(1-hydroxycyclohexyl)methyl]-N^4-methyl-N^1-[1(S)-(cyclohexylmethyl)-2(R),3(S)-dihydroxy-5-methylhexyl]-2(R)-(4-thiazolylmethyl)butanediamide], for which the pIC50 was 7.92.

Consider `CC(C)C[C@H](O)[C@H](O)[C@H](CC1CCCCC1)NC(=O)[C@@H](CC(=O)NC[C@H](O)c1ccccc1)CC1CC1` [Compound 9, N^4-(R)-(2-hydroxy-2-phenylethyl)-N^1-[1(S)-(cyclohexylmethyl)-2(R),3(S)-dihydroxy-5-methylhexyl]-2(R)-(cyclopropylmethyl)butanediamide], for which the pIC50 was 7.14.

`CC(C)C[C@H](O)[C@H](O)[C@H](CC1CCCCC1)NC(=O)[C@@H](CC(=O)N(Cc1ccccc1)CC1(O)CCCCC1)Cc1c[nH]cn1` [Compound 28] had a negative-log IC50 (pIC50) of 7.28.
